Laboratory results as given in patent US8759535B2, “Substituted fused imidazole derivatives, pharmaceutical compositions, and methods of use thereof” (High Point Pharmaceuticals, LLC, priority 2010, dated 2014).
Structures can show the parent of a compound that is named as a salt.

What follows are compounds tested on HMOX1 (assay: HMOX1 Protein Assay (immunostaining of HO-1 in NHLF cells, GE InCell 1000)). Conditions: Homo sapiens, fold change above DMSO treated cells, 3 μM compound (asterisk), 16 h.
Assay type: cell-based
How it was run: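 Fold induction of HO-1 over vehicle, normally at 5 μM compound (asterisk marks 3 μM), in 0.8% DMSO medium. Normal human lung fibroblasts were treated 16 h, then paraformaldehyde-fixed, anti-HO-1/Alexa 488 stained with Hoechst, and read by high-content imaging.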
For `Cn1c(Nc2nc3ccc(C(F)(F)F)cc3s2)nc2cc(C(=O)NCC(=O)N3CC[C@H](O)C3)ccc21` [Example 403, 1-Methyl-2-(6-trifluoromethyl-benzothiazol-2-ylamino)-1H-benzoimidazole-5-carboxylic acid [2-((S)-3-hydroxy-pyrrolidin-1-yl)-2-oxo-ethyl]-amide], the fold induction at 3 µM was 24.8. `CO[C@@H]1CCCN(C(=O)CNC(=O)c2ccc3c(c2)nc(Nc2nc4ccc(C(F)(F)F)cc4s2)n3C)C1` [Example 446, 1-Methyl-2-(6-trifluoromethyl-benzothiazol-2-ylamino)-1H-benzoimidazole-5-carboxylic acid [2-((R)-3-methoxy-piperidin-1-yl)-2-oxo-ethyl]-amide] was tested, and the fold induction at 3 µM was 31.3. For `CN1CCN(CCNC(=O)c2ccc3c(c2)nc(Nc2nc4ccc(Cl)cc4s2)n3C)CC1` [Example 338, 2-(6-Chloro-benzothiazol-2-ylamino)-1-methyl-1H-benzoimidazole-5-carboxylic acid [2-(4-methyl-piperazin-1-yl)-ethyl]-amide], the fold induction at 3 µM was 13.6. `C[C@@H](NC(=O)c1ccc2c(c1)nc(Nc1nc3ccc(C(F)(F)F)cc3s1)n2C)C(=O)N(C)C` [Example 468, 1-Methyl-2-(6-trifluoromethyl-benzothiazol-2-ylamino)-1H-benzoimidazole-5-carboxylic acid ((R)-1-dimethylcarbamoyl-ethyl)-amide] gave a fold induction at 3 µM of 26.3. `Cn1c(Nc2nc3ccc(OC(F)(F)F)cc3s2)nc2cc(C(=O)NCCCCN)ccc21` [Example 346, 1-Methyl-2-(6-trifluoromethoxy-benzothiazol-2-ylamino)-1H-benzoimidazole-5-carboxylic acid (4-amino-butyl)-amide hydrochloride] showed a fold induction at 3 µM of 12.9. Work on `Cn1c(Nc2nc3ccc(Cl)cc3s2)nc2cc(C(=O)NCCOCCN)ccc21` [Example 269, 2-(6-Chloro-benzothiazol-2-ylamino)-1-methyl-1H-benzoimidazole-5-carboxylic acid [2-(2-amino-ethoxy)-ethyl]-amide] yielded a fold induction at 3 µM of 19.9. With `C[C@@H](O)CN1CC[C@@H](NC(=O)c2ccc3c(c2)nc(Nc2nc4ccc(C(F)(F)F)cc4s2)n3C)C1` [Example 297, 1-Methyl-2-(6-trifluoromethyl-benzothiazol-2-ylamino)-1H-benzoimidazole-5-carboxylic acid [(R)-1-((R)-2-hydroxy-propyl)-pyrrolidin-3-yl]-amide] the fold induction at 3 µM was 24.4.

Same assay, conditions: Homo sapiens, fold change above DMSO treated cells, 5 μM compound, 16 h
In the case of `COCCNC(=O)c1ccc2c(c1)nc(Nc1nc3ccc(OC(F)(F)F)cc3s1)n2C` [Example 8, 1-Methyl-2-(6-trifluoromethoxy-benzothiazol-2-ylamino)-1H-benzoimidazole-5-carboxylic acid (2-methoxy-ethyl)-amide], the fold induction at 5 µM is reported as 18.3. Compound `Cn1c(Nc2nc3ccc(OC(F)(F)F)cc3s2)nc2cc(C(=O)NCCOCCO)c(F)cc21` [Example 237, 6-Fluoro-1-methyl-2-(6-trifluoromethoxy-benzothiazol-2-ylamino)-1H-benzoimidazole-5-carboxylic acid [2-(2-hydroxy-ethoxy)-ethyl]-amide] has a fold induction at 5 µM of 30.6. `COC(=O)c1ccc2c(c1)nc(Nc1nc3ccc(C)cc3s1)n2C` [Example 114, 1-Methyl-2-(6-methyl-benzothiazol-2-ylamino)-1H-benzoimidazole-5-carboxylic acid methyl ester] showed a fold induction at 5 µM of 5.1. Work on `Cn1c(Nc2nc3ccc(OC(F)(F)F)cc3s2)nc2cc(C(=O)NCCS(C)(=O)=O)ccc21` [Example 102, 1-Methyl-2-(6-trifluoromethoxy-benzothiazol-2-ylamino)-1H-benzoimidazole-5-carboxylic acid (2-methanesulfonyl-ethyl)-amide] yielded a fold induction at 5 µM of 22.6. Compound `Cn1c(Nc2nc3ccc(Cl)cc3s2)nc2cc(C(=O)N3CCN(CCO)CC3)ccc21` [Example 306, [2-(6-Chloro-benzothiazol-2-ylamino)-1-methyl-1H-benzoimidazol-5-yl]-[4-(2-hydroxy-ethyl)-piperazin-1-yl]-methanone] has a fold induction at 5 µM of 38.7. With `Cn1c(Nc2nc3ccc(Cl)cc3s2)nc2ccc(C(=O)NCCOCCO)cc21` [Example 288, 2-(6-Chloro-benzothiazol-2-ylamino)-3-methyl-3H-benzoimidazole-5-carboxylic acid [2-(2-hydroxy-ethoxy)-ethyl]-amide] the fold induction at 5 µM was 47. Work on `CN(C)[C@@H]1CCN(C(=O)CNC(=O)c2ccc3c(c2)nc(Nc2nc4ccc(Cl)cc4s2)n3C)C1` [Example 417, 2-(6-Chloro-benzothiazol-2-ylamino)-1-methyl-1H-benzoimidazole-5-carboxylic acid [2-((R)-3-dimethylamino-pyrrolidin-1-yl)-2-oxo-ethyl]-amide] yielded a fold induction at 5 µM of 62.8. For `CN(C)CC(=O)N1CCC[C@H](NC(=O)c2ccc3c(c2)nc(Nc2nc4ccc(Cl)cc4s2)n3C)C1` [Example 312, 2-(6-Chloro-benzothiazol-2-ylamino)-1-methyl-1H-benzoimidazole-5-carboxylic acid [(S)-1-(2-dimethylamino-acetyl)-piperidin-3-yl]-amide], the fold induction at 5 µM was 68.8. In the case of `Cn1c(Nc2nc3ccc(Cl)cc3s2)nc2cc(C(=O)NCC(=O)N3CCC(O)C3)ccc21` (stereo not drawn) [Example 399, 2-(6-Chloro-benzothiazol-2-ylamino)-1-methyl-1H-benzoimidazole-5-carboxylic acid [2-(3-hydroxy-pyrrolidin-1-yl)-2-oxo-ethyl]-amide], the fold induction at 5 µM is reported as 20.8. `Cn1c(Nc2nc3ccc(Cl)cc3s2)nc2cc(C(=O)NCCN)ccc21` [Example 343, 2-(6-Chloro-benzothiazol-2-ylamino)-1-methyl-1H-benzoimidazole-5-carboxylic acid (2-amino-ethyl)-amide hydrochloride] was tested, and the fold induction at 5 µM was 21.1. For `Cn1c(Nc2nc3ccc(OC(F)(F)F)cc3s2)nc2cc(C(=O)NCC3CN(C(=O)OC(C)(C)C)CCO3)ccc21` (stereo not drawn) [Example 55, 2-({[1-Methyl-2-(6-trifluoromethoxy-benzothiazol-2-ylamino)-1H-benzoimidazole-5-carbonyl]-amino}methyl)-morpholine-4-carboxylic acid tert-butyl ester], the fold induction at 5 µM was 4.5. For `Cn1c(Nc2nc3ccc(C(F)(F)F)cc3s2)nc2cc(C(=O)NCCOCCF)ccc21` [Example 257, 1-Methyl-2-(6-trifluoromethyl-benzothiazol-2-ylamino)-1H-benzoimidazole-5-carboxylic acid [2-(2-fluoro-ethoxy)-ethyl]-amide], the fold induction at 5 µM was 21.9. `COC(=O)c1ccc2c(c1)nc(Nc1nc3ccc(S(C)(=O)=O)cc3s1)n2C` [Example 113, 2-(6-Methanesulfonyl-benzothiazol-2-ylamino)-1-methyl-1H-benzoimidazole-5-carboxylic acid methyl ester] gave a fold induction at 5 µM of 27.6. `Cn1c(Nc2nc3ccc(OC(F)(F)F)cc3s2)nc2cc(C(=O)NCC(=O)N3CCC(CO)CC3)ccc21` [Example 441, 1-Methyl-2-(6-trifluoromethoxy-benzothiazol-2-ylamino)-1H-benzoimidazole-5-carboxylic acid [2-(4-hydroxymethyl-piperidin-1-yl)-2-oxo-ethyl]-amide] showed a fold induction at 5 µM of 73.6. `COCCn1c(Nc2nc3ccc(OC(F)(F)F)cc3s2)nc2cc(C(=O)NCC(=O)N3CCN(C)CC3)ccc21` [Example 189, 1-(2-Methoxy-ethyl)-2-(6-trifluoromethoxy-benzothiazol-2-ylamino)-1H-benzoimidazole-5-carboxylic acid [2-(4-methyl-piperazin-1-yl)-2-oxo-ethyl]-amide] was tested, and the fold induction at 5 µM was 24.6. For `COCCNC(=O)c1ccc2c(c1)nc(Nc1nc3ccc(OC(F)(F)F)cc3s1)n2CCF` [Example 171, 1-(2-Fluoro-ethyl)-2-(6-trifluoromethoxy-benzothiazol-2-ylamino)-1H-benzoimidazole-5-carboxylic acid (2-methoxy-ethyl)-amide], the fold induction at 5 µM was 22.8. Compound `Cn1c(Nc2nc3ccc(OC(F)(F)F)cc3s2)nc2cc(C#N)ccc21` [Example 194, 1-Methyl-2-(6-trifluoromethoxy-benzothiazol-2-ylamino)-1H-benzoimidazole-5-carbonitrile] has a fold induction at 5 µM of 6. For `CN(C)CC(=O)NCCNC(=O)c1ccc2c(c1)nc(Nc1nc3ccc(Cl)cc3s1)n2C` [Example 324, 2-(6-Chloro-benzothiazol-2-ylamino)-1-methyl-1H-benzoimidazole-5-carboxylic acid [2-(2-dimethylamino-acetylamino)-ethyl]-amide], the fold induction at 5 µM was 27.9. For `Cn1c(Nc2nc3ccc(OC(F)(F)F)cc3s2)nc2cc(C(=O)NCCC3CCCCO3)ccc21` (stereo not drawn) [Example 263, 1-Methyl-2-(6-trifluoromethoxy-benzothiazol-2-ylamino)-1H-benzoimidazole-5-carboxylic acid [2-(tetrahydro-pyran-2-yl)-ethyl]-amide], the fold induction at 5 µM was 19.9. Compound `CN(C)S(=O)(=O)N1CCN(C(=O)CNC(=O)c2ccc3c(c2)nc(Nc2nc4ccc(Cl)cc4s2)n3C)CC1` [Example 430, 2-(6-Chloro-benzothiazol-2-ylamino)-1-methyl-1H-benzoimidazole-5-carboxylic acid [2-(4-dimethylsulfamoyl-piperazin-1-yl)-2-oxoethyl]-amide] has a fold induction at 5 µM of 22.7. `COCCNC(=O)c1ccc2c(c1)nc(Nc1nc3ccc(C)cc3s1)n2C` [Example 129, 2-(6-Methyl-benzothiazol-2-ylamino)-1-methyl-1H-benzimidazole-5-carboxylic acid (2-methoxy-ethyl)-amide] was tested, and the fold induction at 5 µM was 31. For `CCOCCNC(=O)c1ccc2c(c1)nc(Nc1nc3ccc(OC(F)(F)F)cc3s1)n2CCF` [Example 172, 1-(2-Fluoro-ethyl)-2-(6-trifluoromethoxy-benzothiazol-2-ylamino)-1H-benzoimidazole-5-carboxylic acid (2-ethoxy-ethyl)-amide], the fold induction at 5 µM was 21.4. In the case of `CN(C)CC1CCN(C(=O)CNC(=O)c2ccc3c(c2)nc(Nc2nc4ccc(OC(F)(F)F)cc4s2)n3C)CC1` [Example 458, 1-Methyl-2-(6-trifluoromethoxy-benzothiazol-2-ylamino)-1H-benzoimidazole-5-carboxylic acid [2-(4-dimethylaminomethyl-piperidin-1-yl)-2-oxo-ethyl]-amide], the fold induction at 5 µM is reported as 68.5.
